The target of this assay is Rho-associated protein kinase 2 (Homo sapiens) (UniProt O75116). The experiment in a line: ROCK2 kinase inhibitor potency, dose response, biochemical, Kinase-Glo luminescence, S6 peptide, 1536-well (AID 644). Particulars: recombinant ROCK2, S6 peptide, Kinase-Glo ATP luminescence. (In general: In Kinase-Glo more light means more ATP remaining.)

Activity calls are given as the source filed them.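 The calls were made as follows: active = IC50 at or below a set limit; inactive = IC50 above that limit.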

Chain of Rho-associated protein kinase 2 (Homo sapiens) (O75116 whole entry, looked up): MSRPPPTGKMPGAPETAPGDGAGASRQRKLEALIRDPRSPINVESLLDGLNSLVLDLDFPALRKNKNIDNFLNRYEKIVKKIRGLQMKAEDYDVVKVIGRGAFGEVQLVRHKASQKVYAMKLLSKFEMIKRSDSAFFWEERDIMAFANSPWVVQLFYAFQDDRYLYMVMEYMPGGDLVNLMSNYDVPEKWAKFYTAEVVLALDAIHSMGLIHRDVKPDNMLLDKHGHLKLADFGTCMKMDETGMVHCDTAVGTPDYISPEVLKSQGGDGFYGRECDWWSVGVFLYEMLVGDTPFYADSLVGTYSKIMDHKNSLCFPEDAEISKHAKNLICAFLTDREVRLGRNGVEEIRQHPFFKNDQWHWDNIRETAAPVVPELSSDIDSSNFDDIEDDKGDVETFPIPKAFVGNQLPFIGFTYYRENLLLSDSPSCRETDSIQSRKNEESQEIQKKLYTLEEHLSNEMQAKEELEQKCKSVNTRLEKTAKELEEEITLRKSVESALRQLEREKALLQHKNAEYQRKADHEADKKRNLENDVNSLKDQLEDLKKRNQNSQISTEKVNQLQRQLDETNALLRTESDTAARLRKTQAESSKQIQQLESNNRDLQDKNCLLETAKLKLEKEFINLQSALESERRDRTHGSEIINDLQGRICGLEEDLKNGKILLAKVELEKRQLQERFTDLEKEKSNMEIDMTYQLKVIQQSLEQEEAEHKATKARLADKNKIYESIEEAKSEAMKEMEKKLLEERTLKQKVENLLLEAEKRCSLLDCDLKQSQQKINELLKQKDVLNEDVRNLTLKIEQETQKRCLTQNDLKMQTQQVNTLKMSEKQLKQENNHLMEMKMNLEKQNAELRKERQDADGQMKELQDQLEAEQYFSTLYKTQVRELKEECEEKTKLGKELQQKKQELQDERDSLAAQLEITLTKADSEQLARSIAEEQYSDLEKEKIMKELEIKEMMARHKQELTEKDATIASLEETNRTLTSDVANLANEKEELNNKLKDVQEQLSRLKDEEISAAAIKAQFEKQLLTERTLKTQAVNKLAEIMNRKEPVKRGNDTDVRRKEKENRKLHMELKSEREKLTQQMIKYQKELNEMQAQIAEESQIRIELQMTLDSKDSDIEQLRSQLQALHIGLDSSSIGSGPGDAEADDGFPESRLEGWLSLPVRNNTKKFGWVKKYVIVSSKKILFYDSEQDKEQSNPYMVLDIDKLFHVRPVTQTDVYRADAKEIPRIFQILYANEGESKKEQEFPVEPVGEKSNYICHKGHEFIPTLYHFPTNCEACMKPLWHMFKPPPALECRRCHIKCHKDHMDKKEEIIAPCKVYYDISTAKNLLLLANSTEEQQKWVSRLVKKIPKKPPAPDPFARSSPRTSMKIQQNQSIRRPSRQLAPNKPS

As usually defined, the IC50 is the point on the concentration scale where inhibition reaches its midpoint. On to `COc1cc(N=Cc2c(O)[nH]c3ccccc23)cc(OC)c1OC`, for which the IC50 result was “inactive”.
To `CCOC(=O)C1=C(CSc2nc(-c3ccncc3)ccc2C#N)OC(N)=C(C#N)C1c1cccnc1` (stereo not drawn) belongs > 19.9 µM (inactive); to `Cc1[nH]nc2c1C(c1ccc(-c3ccccc3C#N)o1)C(C#N)=C(N)O2` (stereo not drawn), > 19.9 µM (inactive); to `CN1/C(=N\O)c2cccc3cccc1c23`, > 19.9 µM (inactive).
Then `CC1=NN(c2ccccc2)C(=O)C1`, with > 59.6 µM (inactive); and `CN(C(=O)c1cccc(N2C(=O)C3CC=CCC3C2=O)c1)C1CCCCC1` (stereo not drawn), with > 59.6 µM (inactive); and `O/N=C/c1c[nH]c2ccccc12`, with 4.81 µM.
Turning to `COC(=O)c1cccc2c1-c1ccccc1/C2=N/O`, the IC50 was > 19.9 µM (inactive).
